# Data: patent US9492501B2, “Antiviral agent” (priority 2009, dated 2016)
# Key:
# [1] = system: HIV-1 promoter (HIV-1 LTR); test: HIV-1 transcriptional activity, luciferase test in HIV-LTR Jurkat line; assay type: cell-based; conditions: 10 μM AZT, treatment 24 hours, FIG. 5 (luciferase activity)
# Excerpt: (§1) Method: a Jurkat CD4+ T lymphocyte cell line (line 1G5) having integrated into its genome a construction comprising a luciferase reporter gene the expression of which is controlled by the HIV-1 promoter (HIV-1 LTR; HIV-LTR Jurkat line) was used. The measurement of luciferase activity from the cell extracts therefore makes it possible to estimate the HIV-1 transcriptional activity.
# (§2) The Jurkat HIV-LTR and Jurkat 1G5 lines were transfected by means of the DEAE-dextran technique with the proviral genome NL4.3 (complete HIV-1 genome, strain LAI).
# (§3) The HIV-LTR Jurkat and 1G5 Jurkat lines thus infected, are treated 24 hours later with HPBP/PON protein complexes or with purified PON or HPBP proteins at a final concentration of 2 μg/mL of medium (52 nM of protein alone).
# (§4) The cells and the cell supernatant are sampled after treatment for 24 hours.
# (§5) The transcriptional activity is measured by carrying out a luciferase test. The intensity of the HIV-1 replication is measured by means of ELISA assay of the quantity of viral p24 capsid proteins present in the supernatant of the cell cultures of the infected 1G5 lines [Rohr, O., et al. (2000). The Journal of Biological Chemistry 275, 2654-2660]. […]
# (§6) The transcriptional activity and inhibition of the replication are measured as described in Example 6.
# [2] = system: HIV-1 (proviral genome NL4.3, strain LAI); test: HIV-1 replication, ELISA of viral p24 capsid protein in supernatant of infected Jurkat 1G5 cells; assay type: cell-based; conditions: Human immunodeficiency virus 1; 10 μM AZT, treatment 24 hours, p24 in supernatant, Jurkat 1G5
# Excerpt: as §1, §2, §3, §4, §5, §6
structure (smiles),measurement,setting,value
"Cc1cn([C@H]2C[C@H](N=[N+]=[N-])[C@@H](CO)O2)c(=O)[nH]c1=O [AZT, zidovudine, reference compound]",effect on the replication of the virus (FIG. 5),[1],no effect
same,inhibition at 10 µM,[2],60%
